Results: patent US6544991B2, “Compositions and methods for treating bacterial infections” (priority 2000, dated 2003)
Like-named read-outs stand apart in the source and are kept apart here.

Experiments:
VRSA strains = experiment: MIC by agar dilution or microbroth dilution method (NCCLS), VRSA strains; type: cell-based, Staph. aureus; settings: VRSA strains (n = 10)
Description: (§1) Bacterial isolates were obtained from human infections. The isolates were maintained frozen in a liquid nitrogen freezer and plated on Trypticase Soy Agar (TSA) plates supplemented with 5% sheep blood. The quality control strain Staph. aureus 29213 was originally acquired from the American Type Culture Collection (Rockville, Md.).
(§2) MICs were determined by an agar dilution method or microbroth dilution method recommended by NCCLS. Synergy was assessed by agar dilution checker-board method. Minimal inhibitory concentrations (MICS) for each separate drug were determined. The fractional inhibitory concentration (FIC) values were calculated by the MIC of Drug A (e.g., sulbactam/ampicillin) and Drug B (e.g., linezolid or arbekacin) in combination/MIC of Drug A or B alone. The FIC index was determined according to the following formula: [formula]
In total, 48 MRSA strains were tested, including ten VRSA strains isolated from five different countries in the world, 33 MRSA strains isolated from ten Japanese university hospitals, and five MRSA type strains from Juntendo University, Department of Bacteriology, Tokyo, Japan.

Staph. aureus 29213 = experiment: MIC, quality control strain; type: cell-based; settings: for MIC: Staphylococcus aureus
Description: as §1, §2

MRSA strains = experiment: MIC by agar dilution or microbroth dilution method (NCCLS); type: cell-based, Staph. aureus; settings: for MIC: Staphylococcus aureus
Description: as §1, §2

CN[C@H](CC(C)C)C(=O)N[C@H]1C(=O)N[C@@H](CC(N)=O)C(=O)N[C@H]2C(=O)N[C@H]3C(=O)N[C@H](C(=O)N[C@H](C(=O)O)c4cc(O)cc(O)c4-c4cc3ccc4O)[C@H](O)c3ccc(c(Cl)c3)Oc3cc2cc(c3O[C@@H]2O[C@H](CO)[C@@H](O)[C@H](O)[C@H]2O[C@H]2C[C@](C)(N)[C@H](O)[C@H](C)O2)Oc2ccc(cc2Cl)[C@H]1O [VCM, vancomycin]
MICs Range (VRSA strains): 2 to 4 mg/L
MIC (Staph. aureus 29213; ATCC29213, read-out: MIC Values, strain ATCC 29213, control sample (Ex. 26)): 1 µg/mL
MIC (Staph. aureus 29213; ATCC29213, read-out: MIC Values, strain ATCC29213, control sample (Ex. 37)): 0.5 µg/mL
MICs Range (MRSA strains; MRSA strains (n = 38)): 0.5 to 2 mg/L
MIC (MRSA strains; MRSA / NCTC 10442, read-out: MIC Values, strain NCTC 10442): 1 µg/mL
MIC (MRSA strains; MRSA, read-out: MIC Values, strain 85/2082): 1 µg/mL
MIC (MRSA strains; MRSA, read-out: MIC Values, strain 99.3700W): 2 µg/mL
MIC (MRSA strains; MRSA, read-out: MIC Values, strain 99.3759V): 2 µg/mL
MIC (MRSA strains; MRSA, read-out: MIC Values, strain AMC 11094): 4 µg/mL
MIC (MRSA strains; MRSA, read-out: MIC Values, strain BM12612(new)): 2 µg/mL
MIC (MRSA strains; MRSA, read-out: MIC Values, strain H1): 0.5 µg/mL
MIC (MRSA strains; MRSA, read-out: MIC Values, strain HIP 5827): 4 µg/mL
MIC (MRSA strains; MRSA, read-out: MIC Values, strain HIP 5836): 4 µg/mL
MIC (MRSA strains; MRSA, read-out: MIC Values, strain HIP 6297): 2 µg/mL
MIC (MRSA strains; MRSA, read-out: MIC Values, strain HIP 7737): 4 µg/mL
MIC (MRSA strains; MRSA, read-out: MIC Values, strain JSCC 340): 1 µg/mL
MIC (MRSA strains; MRSA, read-out: MIC Values, strain JSCC 351): 1 µg/mL
MIC (MRSA strains; MRSA, read-out: MIC Values, strain JSCC 363): 1 µg/mL
MIC (MRSA strains; MRSA, read-out: MIC Values, strain JSCC 381): 1 µg/mL
MIC (MRSA strains; MRSA, read-out: MIC Values, strain JSCC 390): 1 µg/mL
MIC (MRSA strains; MRSA, read-out: MIC Values, strain JSCC 401): 1 µg/mL
MIC (MRSA strains; MRSA, read-out: MIC Values, strain JSCC 413): 1 µg/mL
MIC (MRSA strains; MRSA, read-out: MIC Values, strain JSCC 431): 0.5 µg/mL
MIC (MRSA strains; MRSA, read-out: MIC Values, strain JSCC 440): 1 µg/mL
MIC (MRSA strains; MRSA, read-out: MIC Values, strain JSCC 451): 1 µg/mL
MIC (MRSA strains; MRSA, read-out: MIC Values, strain JSCC 463): 1 µg/mL
MIC (MRSA strains; MRSA, read-out: MIC Values, strain JSCC 481): 1 µg/mL
MIC (MRSA strains; MRSA, read-out: MIC Values, strain JSCC 490): 1 µg/mL
MIC (MRSA strains; MRSA, read-out: MIC Values, strain JSCC 501): 1 µg/mL
MIC (MRSA strains; MRSA, read-out: MIC Values, strain JSCC 513): 1 µg/mL
MIC (MRSA strains; MRSA, read-out: MIC Values, strain JSCC 531): 1 µg/mL
MIC (MRSA strains; MRSA, read-out: MIC Values, strain JSCC 540): 1 µg/mL
MIC (MRSA strains; MRSA, read-out: MIC Values, strain JSCC 551): 0.5 µg/mL
MIC (MRSA strains; MRSA, read-out: MIC Values, strain JSCC 563): 1 µg/mL
MIC (MRSA strains; MRSA, read-out: MIC Values, strain JSCC 581 (lacks the mecA gene)): 1 µg/mL
MIC (MRSA strains; MRSA, read-out: MIC Values, strain JSCC 590 (lacks the mecA gene)): 1 µg/mL
MIC (MRSA strains; MRSA, read-out: MIC Values, strain JSCC 601): 0.5 µg/mL
MIC (MRSA strains; MRSA, read-out: MIC Values, strain JSCC 640): 1 µg/mL
MIC (MRSA strains; MRSA, read-out: MIC Values, strain JSCC 651): 1 µg/mL
MIC (MRSA strains; MRSA, read-out: MIC Values, strain JSCC 663): 1 µg/mL
MIC (MRSA strains; MRSA, read-out: MIC Values, strain JSCC 681): 1 µg/mL
MIC (MRSA strains; MRSA, read-out: MIC Values, strain JSCC 690): 1 µg/mL
MIC (MRSA strains; MRSA, read-out: MIC Values, strain JSCC 701): 1 µg/mL
MIC (MRSA strains; MRSA, read-out: MIC Values, strain JSCC 713): 2 µg/mL
MIC (MRSA strains; MRSA, read-out: MIC Values, strain JSCC 731): 0.5 µg/mL
MIC (MRSA strains; MRSA, read-out: MIC Values, strain JSCC 740): 0.5 µg/mL
MIC (MRSA strains; MRSA, read-out: MIC Values, strain JSCC 751): 0.5 µg/mL
MIC (MRSA strains; MRSA, read-out: MIC Values, strain JSCC 763): 0.5 µg/mL
MIC (MRSA strains; MRSA, read-out: MIC Values, strain JSCC 781): 2 µg/mL
MIC (MRSA strains; MRSA, read-out: MIC Values, strain JSCC 870): 1 µg/mL
MIC (MRSA strains; MRSA, read-out: MIC Values, strain LIM 2): 2 µg/mL
MIC (MRSA strains; MRSA, read-out: MIC Values, strain Mu 3): 1 µg/mL
MIC (MRSA strains; MRSA, read-out: MIC Values, strain Mu 50): 4 µg/mL
MIC (MRSA strains; MRSA, read-out: MIC Values, strain N315): 0.5 µg/mL

teicoplanin
MICs Range (VRSA strains): 4 to 16 mg/L
MIC Values (Staph. aureus 29213; strain ATCC 29213, control sample (Ex. 26)): 1 µg/mL
MIC Values (Staph. aureus 29213; strain ATCC29213, control sample (Ex. 37)): 1 µg/mL
MICs 50% (MRSA strains; MRSA strains (n = 38)): 1 mg/L
MICs 90% (MRSA strains; MRSA strains (n = 38)): 2 mg/L
MICs Range (MRSA strains; MRSA strains (n = 38)): 0.5 to 4 mg/L
MIC Values (MRSA strains; strain 85/2082): 1 µg/mL
MIC Values (MRSA strains; strain 99.3700W): 4 µg/mL
MIC Values (MRSA strains; strain 99.3759V): 16 µg/mL
MIC Values (MRSA strains; strain AMC 11094): 16 µg/mL
MIC Values (MRSA strains; strain BM12612(new)): 4 µg/mL
MIC Values (MRSA strains; strain H1): 4 µg/mL
MIC Values (MRSA strains; strain HIP 5827): 16 µg/mL
MIC Values (MRSA strains; strain HIP 5836): 8 µg/mL
MIC Values (MRSA strains; strain HIP 6297): 4 µg/mL
MIC Values (MRSA strains; strain HIP 7737): 16 µg/mL
MIC Values (MRSA strains; strain JSCC 340): 1 µg/mL
MIC Values (MRSA strains; strain JSCC 351): 1 µg/mL
MIC Values (MRSA strains; strain JSCC 363): 1 µg/mL
MIC Values (MRSA strains; strain JSCC 381): 1 µg/mL
MIC Values (MRSA strains; strain JSCC 390): 1 µg/mL
MIC Values (MRSA strains; strain JSCC 401): 2 µg/mL
MIC Values (MRSA strains; strain JSCC 413): 2 µg/mL
MIC Values (MRSA strains; strain JSCC 431): 0.5 µg/mL
MIC Values (MRSA strains; strain JSCC 440): 2 µg/mL
MIC Values (MRSA strains; strain JSCC 451): 2 µg/mL
MIC Values (MRSA strains; strain JSCC 463): 1 µg/mL
MIC Values (MRSA strains; strain JSCC 481): 2 µg/mL
MIC Values (MRSA strains; strain JSCC 490): 2 µg/mL
MIC Values (MRSA strains; strain JSCC 501): 2 µg/mL
MIC Values (MRSA strains; strain JSCC 513): 1 µg/mL
MIC Values (MRSA strains; strain JSCC 531): 1 µg/mL
MIC Values (MRSA strains; strain JSCC 540): 1 µg/mL
MIC Values (MRSA strains; strain JSCC 551): 1 µg/mL
MIC Values (MRSA strains; strain JSCC 563): 2 µg/mL
MIC Values (MRSA strains; strain JSCC 581 (lacks the mecA gene)): 8 µg/mL
MIC Values (MRSA strains; strain JSCC 590 (lacks the mecA gene)): 8 µg/mL
MIC Values (MRSA strains; strain JSCC 601): 1 µg/mL
MIC Values (MRSA strains; strain JSCC 640): 1 µg/mL
MIC Values (MRSA strains; strain JSCC 651): 2 µg/mL
MIC Values (MRSA strains; strain JSCC 663): 1 µg/mL
MIC Values (MRSA strains; strain JSCC 681): 0.5 µg/mL
MIC Values (MRSA strains; strain JSCC 690): 1 µg/mL
MIC Values (MRSA strains; strain JSCC 701): 1 µg/mL
MIC Values (MRSA strains; strain JSCC 713): 2 µg/mL
MIC Values (MRSA strains; strain JSCC 731): 1 µg/mL
MIC Values (MRSA strains; strain JSCC 740): 1 µg/mL
MIC Values (MRSA strains; strain JSCC 751): 1 µg/mL
MIC Values (MRSA strains; strain JSCC 763): 1 µg/mL
MIC Values (MRSA strains; strain JSCC 781): 4 µg/mL
MIC Values (MRSA strains; strain JSCC 870): 1 µg/mL
MIC Values (MRSA strains; strain LIM 2): 8 µg/mL
MIC Values (MRSA strains; strain Mu 3): 8 µg/mL
MIC Values (MRSA strains; strain Mu 50): 16 µg/mL
MIC Values (MRSA strains; strain N315): 0.5 µg/mL
MIC Values (MRSA strains; strain NCTC 10442): 2 µg/mL
